Data taken from BindingDB's records for doi:10.1021/jm970141k (University of North Texas, 1997).

Assay: In vitro inhibition of Acetylcholinesterase Activity in octopus brain

CCCCCSC(=O)OCC[N+](C)(C)C [Trimethyl-(2-pentylsulfanylcarbonyloxy-ethyl)-ammonium; chloride]
Ki: 2000 nM
